Assay results published in ChEMBL document CHEMBL1201862, “PubChem BioAssay data set” (2004).
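Exposure lasted 48 hours, with cells grown in 96-well plates and compounds tested at five concentrations. Abbreviation: GI50, concentration required for 50% inhibition of growth.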 Active and inactive are the calls of the source. No stated cut-off is given here; in the data, active = GI50 up to about 1.1 µM and inactive = higher.

How the values were obtained:
Assay in all cases: DTP human tumour cell line panel, 48 h
A498 = tested on: A498
A549 = tested on: A549
ACHN = tested on: ACHN
CAKI-1 = tested on: CAKI-1
HCC 2998 = tested on: HCC 2998
HOP-92 = tested on: HOP-92
LOX IMVI = tested on: LOX IMVI
MCF7 = tested on: MCF7
MDA-MB-435 = tested on: MDA-MB-435
MOLT-4 = tested on: MOLT-4
NCI-H460 = tested on: NCI-H460
OVCAR-8 = tested on: OVCAR-8
PC-3 = tested on: PC-3
SK-MEL-28 = tested on: SK-MEL-28
SK-MEL-2 = tested on: SK-MEL-2
SK-MEL-5 = tested on: SK-MEL-5
SR = tested on: SR
T47D = tested on: T47D
UO-31 = tested on: UO-31
NCI-H522 = tested on: NCI-H522

Compound	GI50 (A498)	GI50 (A549)	GI50 (ACHN)	GI50 (CAKI-1)	GI50 (HCC 2998)	GI50 (HOP-92)	GI50 (LOX IMVI)	GI50 (MCF7)	GI50 (MDA-MB-435)	GI50 (MOLT-4)	GI50 (NCI-H460)	GI50 (OVCAR-8)	GI50 (PC-3)	GI50 (SK-MEL-28)	GI50 (SK-MEL-2)	GI50 (SK-MEL-5)	GI50 (SR)	GI50 (T47D)	GI50 (UO-31)	GI50 (NCI-H522)
CC1(C)C2CCC(N)(C2)C1N (stereo unspecified)	> 100 µM (inactive)	> 100 µM (inactive)	> 100 µM (inactive)	> 100 µM (inactive)	> 100 µM (inactive)	21.1 µM (inactive)	> 100 µM (inactive)	> 100 µM (inactive)	> 100 µM (inactive)	> 100 µM (inactive)	> 100 µM (inactive)	> 100 µM (inactive)	> 100 µM (inactive)	> 100 µM (inactive)	> 100 µM (inactive)	> 100 µM (inactive)	> 100 µM (inactive)	> 100 µM (inactive)	> 100 µM (inactive)	
NC1N=C(c2ccc(Cl)cc2)C2=C(N1)c1ccccc1CC2 (stereo unspecified)	49.5 µM (inactive)	20.3 µM (inactive)	> 51.2 µM (inactive)	76.4 µM (inactive)	0.156 µM (active)	33.6 µM (inactive)	4.13 µM (inactive)	6.55 µM (inactive)	2.62 µM (inactive)	3.17 µM (inactive)	8.51 µM (inactive)	25.6 µM (inactive)	23.1 µM (inactive)	64.7 µM (inactive)	9.08 µM (inactive)	14.7 µM (inactive)		10.4 µM (inactive)	32.7 µM (inactive)	4.07 µM (inactive)
CC1=CC(O)C(C(O)(C(F)(F)F)C(F)(F)F)C(C)(C)C1 (stereo unspecified)	0.0296 µM (active)	> 10 µM (inactive)	> 10 µM (inactive)	> 10 µM (inactive)	> 10 µM (inactive)	> 10 µM (inactive)	> 10 µM (inactive)	> 10 µM (inactive)	< 0.001 µM (active)	> 10 µM (inactive)	> 10 µM (inactive)	> 10 µM (inactive)	> 10 µM (inactive)	> 10 µM (inactive)	> 10 µM (inactive)	0.0371 µM (active)		> 10 µM (inactive)		> 10 µM (inactive)
COc1cc2c[n+](C)c3c4cc(OC)c(OC)cc4c(OC)cc3c2cc1OC	> 100 µM (inactive)	> 65.3 µM (inactive)	> 100 µM (inactive)	> 100 µM (inactive)	6.01 µM (inactive)		16.7 µM (inactive)	2.17 µM (inactive)	11.2 µM (inactive)		17.4 µM (inactive)	0.371 µM (active)	12.2 µM (inactive)	6.43 µM (inactive)	15.8 µM (inactive)	2.77 µM (inactive)		1.85 µM (inactive)	> 100 µM (inactive)	0.0359 µM (active)
c1ccc2c(c1)ccc1nc3ccccn3c12		> 100 µM (inactive)	> 100 µM (inactive)		> 100 µM (inactive)	> 100 µM (inactive)		> 100 µM (inactive)	> 100 µM (inactive)	> 100 µM (inactive)	> 100 µM (inactive)	> 100 µM (inactive)	> 100 µM (inactive)	> 100 µM (inactive)		89.7 µM (inactive)	> 100 µM (inactive)	> 100 µM (inactive)	70.6 µM (inactive)	
Cc1cc(O)c(C(O)c2ccccn2)cc1O (stereo unspecified)		81.1 µM (inactive)	6.01 µM (inactive)	11.7 µM (inactive)	21.3 µM (inactive)		16.5 µM (inactive)	18.1 µM (inactive)	18.7 µM (inactive)	13.6 µM (inactive)	49.2 µM (inactive)	18.8 µM (inactive)	14.1 µM (inactive)	18.7 µM (inactive)		23.2 µM (inactive)	3.01 µM (inactive)	> 10 µM (inactive)	19.1 µM (inactive)	3.78 µM (inactive)
O=C1/C(=C/c2ccco2)N=C2Sc3c([nH]cnc3=O)N12	> 100 µM (inactive)	> 100 µM (inactive)	> 100 µM (inactive)	> 100 µM (inactive)		> 100 µM (inactive)	> 100 µM (inactive)	> 100 µM (inactive)	> 100 µM (inactive)	> 100 µM (inactive)		> 100 µM (inactive)	> 100 µM (inactive)	> 100 µM (inactive)	> 100 µM (inactive)	> 100 µM (inactive)		> 100 µM (inactive)	> 100 µM (inactive)	> 100 µM (inactive)
O=C(CC(=O)Nc1ccccc1Cl)NNC(Sc1ccccc1)c1cc(/N=N/c2ccc(Br)cc2)ccc1O (stereo unspecified)	2.39 µM (inactive)	3.08 µM (inactive)	1.36 µM (inactive)	1.46 µM (inactive)	2.81 µM (inactive)	2.07 µM (inactive)	0.927 µM (active)	0.681 µM (active)	2.06 µM (inactive)	0.321 µM (active)	0.625 µM (active)	0.598 µM (active)	0.571 µM (active)	2.69 µM (inactive)	3.3 µM (inactive)	1.07 µM (active)		2.02 µM (inactive)	1.14 µM (inactive)	4.07 µM (inactive)
CCOc1ccc(N/C(=C(/C(Cl)=C(/Cl)N2CCCCC2)[N+](=O)[O-])n2nnc3ccccc32)cc1	18.3 µM (inactive)	21.5 µM (inactive)	16.2 µM (inactive)	9.23 µM (inactive)	21 µM (inactive)	18.2 µM (inactive)		16.9 µM (inactive)	8.49 µM (inactive)	5.27 µM (inactive)	22.2 µM (inactive)		11.6 µM (inactive)	18.5 µM (inactive)	16.7 µM (inactive)	15.6 µM (inactive)		17.3 µM (inactive)	2 µM (inactive)	6.31 µM (inactive)
COc1ccc(C(=O)/C=C2\Nc3cccnc3N\C2=C/C(=O)c2ccc(OC)cc2)cc1	> 100 µM (inactive)	15.6 µM (inactive)	17.7 µM (inactive)	17.2 µM (inactive)	23.9 µM (inactive)	53.1 µM (inactive)	13.9 µM (inactive)	14.8 µM (inactive)	20.3 µM (inactive)	27.9 µM (inactive)	9.18 µM (inactive)	14.3 µM (inactive)	> 100 µM (inactive)	16.9 µM (inactive)	23.7 µM (inactive)	25.1 µM (inactive)	16.1 µM (inactive)	11.5 µM (inactive)	27.4 µM (inactive)	
C=C1C(OC)=C(OC)C(=O)c2[nH]c3c(OC)cc([N+](=O)[O-])cc3c21	> 100 µM (inactive)	> 100 µM (inactive)	> 100 µM (inactive)	> 100 µM (inactive)	> 100 µM (inactive)	> 100 µM (inactive)	> 100 µM (inactive)	> 100 µM (inactive)	> 100 µM (inactive)	> 100 µM (inactive)	> 100 µM (inactive)	> 100 µM (inactive)	> 100 µM (inactive)	> 100 µM (inactive)	> 100 µM (inactive)	> 100 µM (inactive)		> 100 µM (inactive)	> 100 µM (inactive)	> 100 µM (inactive)
